{"source": "patent US20080003226A1", "about": "“Method to Reduce Hepatoxicity of Fas-Mediated Apoptosis-Inducing Agents” (APOXIS SA, priority 2004, published 2008)", "system": "mesothelioma and ovarian cancer cell lines", "test": "Cytotoxicity of MegaFasL as single agent and in combination with cisplatin in vitro", "type": "cell-based", "settings": "compound alone", "protocol": "Use of the Fas-mediated apoptosis inducing agents defined above and more particularly hexamers of the soluble fraction of FasL as defined above as an adjuvant with existing chemotherapies is another embodiment of the present invention. […] Actually, the antitumor effectiveness of MegaFasL as single agent and in combination with cisplatin was evaluated first on mesothelioma and ovarian cancer cell lines in vitro."}
{"smiles": "N.N.[Cl][Pt][Cl]", "note": "[cisplatin]", "values": [{"measurement": "cell death", "result": "only marginal cell death"}]}
